In patent US20260297042A1, “BIARYLAMIDE DERIVATIVES AND THEIR USE AS PKMYT1 INHIBITORS” (CANCER RESEARCH TECHNOLOGY LIMITED, priority 2023, published 2026):
Where a name gives a salt, the structure may show the parent alone.

Key:
WEE1 = target: T1, WEE1 (Homo sapiens, UniProt P30291); test: Selectivity versus WEE1 assay (ADP-Glo enzymatic assay); assay type: biochemical; conditions: for IC50: ADP-Glo; for PKMYT1 vs. WEE1 selectivity: fold difference in selectivity for PKMYT1 over WEE1
T1 construct: purchased Thermo Fisher PR7373A
T1 sequence (P30291 whole entry): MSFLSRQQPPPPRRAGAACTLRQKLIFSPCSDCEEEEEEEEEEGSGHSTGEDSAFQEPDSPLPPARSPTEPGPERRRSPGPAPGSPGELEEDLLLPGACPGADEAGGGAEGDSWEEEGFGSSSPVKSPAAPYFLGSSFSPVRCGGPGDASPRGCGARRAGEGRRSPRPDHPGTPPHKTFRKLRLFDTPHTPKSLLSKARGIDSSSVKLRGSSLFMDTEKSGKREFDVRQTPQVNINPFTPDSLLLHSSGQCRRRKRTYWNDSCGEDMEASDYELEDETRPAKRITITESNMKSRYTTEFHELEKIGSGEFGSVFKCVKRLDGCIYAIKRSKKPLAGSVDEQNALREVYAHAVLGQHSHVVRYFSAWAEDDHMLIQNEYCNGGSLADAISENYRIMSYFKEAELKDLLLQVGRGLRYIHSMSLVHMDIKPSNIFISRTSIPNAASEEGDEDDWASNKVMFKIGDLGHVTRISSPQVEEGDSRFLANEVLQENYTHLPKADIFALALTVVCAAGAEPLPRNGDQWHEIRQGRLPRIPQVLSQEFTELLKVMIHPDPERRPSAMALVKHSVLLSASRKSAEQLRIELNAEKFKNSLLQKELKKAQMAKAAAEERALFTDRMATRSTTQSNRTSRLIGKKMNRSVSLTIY
Outline: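 WEE1 at 15 nM final in 50 mM HEPES pH 7.5, 10 mM MgCl2, 1 mM EGTA, 0.01% Brij-35, 1% DMSO; reaction started with 30 µM ATP, 60 min at 26 °C. ADP-Glo luminescence; IC50 from dose-response curves, replicates within 3-fold and r2 >0.9.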

Human PKMYT1 = target: T2, Human PKMYT1 (Homo sapiens, UniProt Q99640); test: PKMYT1 biochemical ADP-Glo enzymatic assay; conditions: ADP-Glo
T2 construct: Human PKMYT1 75-362 was cloned as a TEV cleavable 6xHis fusion; 6xHis (TEV cleavable) (cleaved yes); made in house; host or cells: bacterial cells
T2 sequence (Q99640 75-362): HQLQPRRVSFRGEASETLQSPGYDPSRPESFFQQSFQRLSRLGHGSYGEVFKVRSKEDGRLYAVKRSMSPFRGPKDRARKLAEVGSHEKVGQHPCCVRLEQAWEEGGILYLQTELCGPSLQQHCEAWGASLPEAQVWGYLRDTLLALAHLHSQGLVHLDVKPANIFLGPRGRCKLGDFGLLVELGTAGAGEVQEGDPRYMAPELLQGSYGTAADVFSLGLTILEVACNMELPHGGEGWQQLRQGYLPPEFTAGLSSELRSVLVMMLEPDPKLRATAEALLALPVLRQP
Outline: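 Purified untagged human PKMYT1 75-362 at 15 nM final was tested in HEPES pH 7.5 with MgCl2, EGTA, Brij-35 and 1% DMSO. Intrinsic ATPase activity was measured with 500 uM ATP over 60 min at 26° C. ADP-Glo luminescence was read and IC50 fitted from 10-point, 3-fold dilution curves.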

[1] = 15 nM WEE1, 60 minutes at 26° C., banded
[2] = banded, ">N" = at least in this band but could be higher
[3] = 15 nM PKMYT1 kinase domain, 500 µM ATP, 60 minutes at 26° C., banded
[4] = PKMYT1 kinase domain 15 nM, banded values

| Structure (SMILES) | IC50 (WEE1; [1]) [µM] | PKMYT1 vs. WEE1 selectivity (WEE1; [2]) | IC50 (Human PKMYT1; [3]) [µM] | IC50 (WEE1; WEE1 15 nM, banded values) [µM] | PKMYT1 vs. WEE1 selectivity (WEE1; banded) | IC50 (Human PKMYT1; [4]) [µM] |
| --- | --- | --- | --- | --- | --- | --- |
| Cc1cc(Nc2ncc(C(=O)Nc3c(C)ccc(O)c3C)s2)n(C)n1 [BAA-127, 2-[(2,5-dimethylpyrazol-3-yl)amino]-N-(3-hydroxy-2,6-dimethyl-phenyl)thiazole-5-carboxamide] | > 11 | Y (1000-5000 fold) | < 0.05 |  |  |  |
| Cn1ccc(Nc2ncc(C(=O)Nc3c(Cl)ccc(O)c3F)s2)n1 [BAA-479, N-(6-Chloro-2-fluoro-3-hydroxyphenyl)-2-((1-methyl-1H-pyrazol-3-yl)amino)thiazole-5-carboxamide] |  |  |  | > 11 | W (10-<100 fold) | 0.05 to 1 |
| Cc1ccc(O)c(C)c1NC(=O)c1cnc(Nc2ccn(CC(=O)N3CCN(CCO)CC3)n2)s1 [BAA-153] | > 11 | Y (1000-5000 fold) | < 0.05 |  |  |  |
| Cc1ccc(O)c(C)c1NC(=O)c1cnc(Nc2cccc3ncsc23)s1 [BAA-485, 2-(benzo[d]thiazol-7-ylamino)-N-(3-hydroxy-2,6-dimethylphenyl)thiazole-5-carboxamide] |  |  |  | > 11 | X (100-<1000 fold) | < 0.05 |
| Cc1cccc(CNc2ncc(C(=O)Nc3c(C)ccc(O)c3C)s2)c1O [BAA-363, N-(3-hydroxy-2,6-dimethylphenyl)-2-((2-hydroxy-3-methylbenzyl)amino)thiazole-5-carboxamide] | > 11 | X (100-<1000 fold) | 0.05 to 1 |  |  |  |
| Cc1ccc(O)c(C)c1NC(=O)c1cnc(Nc2ccn(CC(=O)N3CC(F)(F)C3)n2)s1 [BAA-196] | > 11 | Y (1000-5000 fold) | < 0.05 |  |  |  |
| CCOC(=O)c1oc(Nc2ncc(C(=O)Nc3c(C)ccc(O)c3C)s2)nc1C [BAA-446, ethyl 2-((5-((3-hydroxy-2,6-dimethylphenyl)carbamoyl)thiazol-2-yl)amino)-4-methyloxazole-5-carboxylate] |  |  |  | > 11 | X (100-<1000 fold) | 0.05 to 1 |
| CCNC(=O)Cn1nc(Nc2ncc(C(=O)Nc3c(C)ccc(O)c3C)s2)cc1C [BAA-202, 2-[[1-[2-(ethylamino)-2-oxo-ethyl]-5-methyl-pyrazol-3-yl]amino]-N-(3-hydroxy-2,6-dimethyl-phenyl)thiazole-5-carboxamide] | > 11 | X (100-<1000 fold) | < 0.05 |  |  |  |
| Cc1nc(CNc2ncc(C(=O)Nc3c(C)ccc(O)c3C)s2)no1 [BAA-364, N-(3-hydroxy-2,6-dimethylphenyl)-2-(((5-methyl-1,2,4-oxadiazol-3-yl)methyl)amino) thiazole-5-carboxamide] | > 11 | W (10-<100 fold) | 1 to 11 |  |  |  |
| Cc1ccc(O)c(C)c1NC(=O)c1cnc(NCCCN2CCOCC2)s1 [BAA-065, N-(3-hydroxy-2,6-dimethyl-phenyl)-2-(3-morpholinopropylamino)thiazole-5-carboxamide] | > 11 | >X (100-<1000 fold) | 0.05 to 1 |  |  |  |
| COc1ccc(CC(=O)N2CCC(CNc3ncc(C(=O)Nc4c(C)ccc(O)c4C)s3)CC2)cc1 [BAA-213, N-(3-Hydroxy-2.6-dimethyl-phenyl)-2-[[1-[2-(4-methoxyphenyl)acetyl]-4-piperidyl]methylamino]thiazole-5-carboxamide] | > 11 | >X (100-<1000 fold) | 0.05 to 1 |  |  |  |
| Cc1ccc(O)c(C)c1NC(=O)c1cnc(Nc2cc(CO)n(C)n2)s1 [BAA-251, N-(3-hydroxy-2,6-dimethylphenyl)-2-((5-(hydroxymethyl)-1-methyl-1H-pyrazol-3-yl)amino)thiazole-5-carboxamide] | 1 to 11 | X (100-<1000 fold) | < 0.05 |  |  |  |
| Cc1ccc(O)c(C)c1NC(=O)c1cnc(NCc2cn[nH]c2)s1 [BAA-360, 2-(((1H-pyrazol-4-yl)methyl)amino)-N-(3-hydroxy-2,6-dimethylphenyl) thiazole-5-carboxamide] | > 11 | Y (1000-5000 fold) | < 0.05 |  |  |  |
| Cc1ccc(O)c(C)c1NC(=O)c1cnc(Nc2ccn([C@H]3CCNC3)n2)s1 [BAA-057, N-(3-hydroxy-2,6-dimethyl-phenyl)-2-[1-[(3S)-pyrrolidin-3-yl]pyrazol-3-yllamino]thiazole-5-carboxamide (hydrochloride)] | > 11 | >W (10-<100 fold) | 1 to 11 |  |  |  |
| Cc1ccc(O)c(C)c1NC(=O)c1cnc(Nc2cc3ccc(Cl)cn3n2)s1 [BAA-051, 2-[(6-chloropyrazolo[1,5-a]pyridin-2-yl)amino]-N-(3-hydroxy-2,6-dimethyl-phenyl)thiazole-5-carboxamide] | > 11 | >X (100-<1000 fold) | 0.05 to 1 |  |  |  |
| CCN(CC)C(=O)N1CC[C@@H](n2ccc(Nc3ncc(C(=O)Nc4c(C)ccc(O)c4C)s3)n2)C1 [BAA-112, 2-[[1-[(3R)-1-(Diethylcarbamoyl)pyrrolidin-3-yl]pyrazol-3-yl]amino]-N-(3-hydroxy-2,6-dimethyl-phenyl)thiazole-5-carboxamide] | > 11 | >Y (1000-5000 fold) | 0.05 to 1 |  |  |  |
| CCn1ccc(Nc2ncc(C(=O)Nc3c(C)ccc(O)c3C)s2)n1 [BAA-005, 2-[(1-ethylpyrazol-3-yl)amino]-N-(3-hydroxy-2,6-dimethyl-phenyl)thiazole-5-carboxamide] | 1 to 11 | X (100-<1000 fold) | < 0.05 |  |  |  |
| CCOc1ccc(Nc2ncc(C(=O)Nc3c(C)ccc(O)c3C)s2)cc1 [BAA-503, 2-((4-ethoxyphenyl)amino)-N-(3-hydroxy-2,6-dimethylphenyl)thiazole-5-carboxamide] |  |  |  | 1 to 11 | W (10-<100 fold) | 0.05 to 1 |
| Cc1ccc(O)c(C)c1NC(=O)c1cnc(Nc2ccn([C@@H]3CCNC3)n2)s1 [BAA-056, N-(3-hydroxy-2,6-dimethyl-phenyl)-2-[[1-[(3R)-pyrrolidin-3-yl]pyrazol-3-yl]amino]thiazole-5-carboxamide hydrochloride] | > 11 | X (100-<1000 fold) | 0.05 to 1 |  |  |  |
| Cc1ccc(O)c(C)c1NC(=O)c1cnc(Nc2ccn(CC(=O)NCCN3CCN(C(=O)OC(C)(C)C)CC3)n2)s1 [BAA-158] | > 11 | X (100-<1000 fold) | 0.05 to 1 |  |  |  |
| Cc1ccc(O)c(C)c1NC(=O)c1cnc(Nc2ccn(CC(=O)NCCCO)n2)s1 [BAA-159, N-(3-hydroxy-2,6-dimethyl-phenyl)-2-[[1-[2-(3-hydroxypropylamino)-2-oxo-ethyl]pyrazol-3-yl]amino]thiazole-5-carboxamide] | > 11 | Y (1000-5000 fold) | < 0.05 |  |  |  |
| Cc1ccc(O)c(C)c1NC(=O)c1cnc(Nc2ccn(CC(=O)N3C[C@@H](C)N[C@@H](C)C3)n2)s1 [BAA-227, 2-((1-(2-((3R,5S)-3,5-dimethylpiperazin-1-yl)-2-oxoethyl)-1H-pyrazol-3-yl)amino)-N-(3-hydroxy-2,6-dimethylphenyl)thiazole-5-carboxamide] | > 11 | X (100-<1000 fold) | < 0.05 |  |  |  |
| Cc1ccc(O)c(C)c1NC(=O)c1cnc(Nc2ccn(C3CCNCC3)n2)s1 [BAA-055] | > 11 | >X (100-<1000 fold) | 0.05 to 1 |  |  |  |
| COc1ccc(CNc2ncc(C(=O)Nc3c(C)ccc(O)c3C)s2)cc1 [BAA-352, N-(3-hydroxy-2,6-dimethylphenyl)-2-((4-methoxybenzyl)amino)thiazole-5-carboxamide] | > 11 | X (100-<1000 fold) | 0.05 to 1 |  |  |  |
| Cc1nnc(Nc2ncc(C(=O)Nc3c(C)ccc(O)c3C)s2)s1 [BAA-263, N-(3-hydroxy-2,6-dimethylphenyl)-2-((5-methyl-1,3,4-thiadiazol-2-yl)amino)thiazole-5-carboxamide] | > 11 | X (100-<1000 fold) | 0.05 to 1 |  |  |  |
| Cc1ccc(O)c(C)c1NC(=O)c1cnc(Nc2ccn(C3CCCC3)n2)s1 [BAA-014, 2-[(1-cyclopentylpyrazol-3-yl)amino]-N-(3-hydroxy-2,6-dimethyl-phenyl)thiazole-5-carboxamide] | 1 to 11 | W (10-<100 fold) | < 0.05 |  |  |  |
| Cc1ccc(O)c(C)c1NC(=O)c1cnc(Nc2ccn(CC(=O)N3CCC4(CC3)CCN(C(=O)OC(C)(C)C)C4)n2)s1 [BAA-155, tert-butyl 8-[2-[3-[5-[(3-hydroxy-2,6-dimethyl-phenyl)carbamoyl]thiazol-2-ylamino]pyrazol-1-yl]acetyl]-2,8-diazaspiro[4.5]decane-2-carboxylate] | > 11 | X (100-<1000 fold) | < 0.05 |  |  |  |
